Results reported in ChEMBL document CHEMBL2384918, “Identification of Selective Nanomolar Inhibitors of the Human Neuraminidase, NEU4” (ACS Med Chem Lett, 2013).
pIC50, pKi: −log10 of the molar value.

Assays:
Sialidase-3 = target: T1, Sialidase-3 (Homo sapiens, UniProt Q9UQ49); assay: Inhibition of human NEU3 using 4-MU-NANA as substrate preincubated for 15 mins before substrate addition measured after 30 mins by fluorescence plate reader analysis
T1 sequence (Q9UQ49 whole entry): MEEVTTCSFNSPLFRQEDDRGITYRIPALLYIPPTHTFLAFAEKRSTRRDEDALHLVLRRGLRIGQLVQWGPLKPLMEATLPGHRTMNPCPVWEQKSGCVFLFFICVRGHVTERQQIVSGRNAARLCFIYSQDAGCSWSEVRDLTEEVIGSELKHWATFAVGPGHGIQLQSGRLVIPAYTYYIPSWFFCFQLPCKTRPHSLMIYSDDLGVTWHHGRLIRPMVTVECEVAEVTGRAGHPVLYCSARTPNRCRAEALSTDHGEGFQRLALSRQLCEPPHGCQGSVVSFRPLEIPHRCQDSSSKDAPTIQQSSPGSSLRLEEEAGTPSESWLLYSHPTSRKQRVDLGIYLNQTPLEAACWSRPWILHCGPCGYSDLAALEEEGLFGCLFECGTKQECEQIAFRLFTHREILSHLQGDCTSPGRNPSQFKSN

Sialidase-4 [1] = target: T2, Sialidase-4 (Homo sapiens, UniProt Q8WWR8); assay: Inhibition of human NEU4 using 4-MU-NANA as substrate preincubated for 15 mins before substrate addition measured after 30 mins by fluorescence plate reader analysis
T2 sequence (Q8WWR8 whole entry): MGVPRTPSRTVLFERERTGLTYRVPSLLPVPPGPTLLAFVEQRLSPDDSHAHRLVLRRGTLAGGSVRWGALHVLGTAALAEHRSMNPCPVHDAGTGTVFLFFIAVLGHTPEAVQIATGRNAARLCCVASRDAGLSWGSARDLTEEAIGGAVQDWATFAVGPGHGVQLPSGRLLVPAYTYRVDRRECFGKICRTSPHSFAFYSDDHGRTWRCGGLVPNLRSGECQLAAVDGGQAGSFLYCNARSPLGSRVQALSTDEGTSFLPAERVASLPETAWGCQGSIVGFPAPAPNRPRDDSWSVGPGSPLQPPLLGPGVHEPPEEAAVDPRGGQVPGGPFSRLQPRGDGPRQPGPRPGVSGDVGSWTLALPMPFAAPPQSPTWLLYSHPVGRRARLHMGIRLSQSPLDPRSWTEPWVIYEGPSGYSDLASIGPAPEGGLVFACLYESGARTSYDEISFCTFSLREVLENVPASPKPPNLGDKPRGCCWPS

Sialidase-1 = Sialidase-1 (Homo sapiens, UniProt Q99519); assay: Inhibition of human NEU1 using 4-MU-NANA as substrate preincubated for 15 mins before substrate addition measured after 30 mins by fluorescence plate reader analysis
Sialidase-4 [2] = target: T2, Sialidase-4; assay: Inhibition of human NEU4 using 4-MU-NANA as substrate measured every 30 seconds for 60 mins by fluorescence plate reader analysis

| Compound | pIC50 (Sialidase-3) | pIC50 (Sialidase-4 [1]) | pIC50 (Sialidase-1) | pKi (Sialidase-4 [2]) |
| --- | --- | --- | --- | --- |
| CC(=O)N[C@H]1[C@H]([C@H](O)[C@H](O)CN=[N+]=[N-])OC(C(=O)O)=C[C@@H]1O | 4.71 | 4.22 | 3.21 |  |
| CC(=O)N[C@H]1[C@H]([C@H](O)[C@H](O)Cn2cc(-c3ccccc3)nn2)OC(C(=O)O)=C[C@@H]1O | 5.34 | 5.64 | < 3.70 |  |
| CCOc1cn(C[C@@H](O)[C@@H](O)[C@@H]2OC(C(=O)O)=C[C@H](O)[C@H]2NC(C)=O)nn1 | 4.05 | 5.44 | 3.77 |  |
| CC(=O)N[C@H]1[C@H]([C@H](O)[C@H](O)Cn2cc(COc3ccccc3)nn2)OC(C(=O)O)=C[C@@H]1O | 5.26 | 5.77 | < 3.00 |  |
| CC(=O)N[C@H]1[C@H]([C@H](O)[C@H](O)Cn2cc(CO)nn2)OC(C(=O)O)=C[C@@H]1O | 4.10 |  | < 3.00 |  |
| CC(=O)N[C@H]1[C@H]([C@H](O)[C@H](O)Cn2cc(CCO)nn2)OC(C(=O)O)=C[C@@H]1O | 4.42 | 6.09 | < 3.00 | 7.22 |
| CC(=O)N[C@H]1[C@H]([C@H](O)[C@H](O)Cn2cc(CCCO)nn2)OC(C(=O)O)=C[C@@H]1O | 4.41 | 5.68 | 3.18 |  |
| CC(=O)N[C@H]1[C@H]([C@H](O)[C@H](O)Cn2cc(C(C)(C)O)nn2)OC(C(=O)O)=C[C@@H]1O |  | 5.40 | < 3.00 |  |
| [N-]=[N+]=NCC(=O)N[C@H]1[C@H]([C@H](O)[C@H](O)CO)OC(C(=O)O)=C[C@@H]1O | 5.33 | 5.35 | 4.54 |  |
| O=C(Cn1cc(-c2ccccc2)nn1)N[C@H]1[C@H]([C@H](O)[C@H](O)CO)OC(C(=O)O)=C[C@@H]1O | < 3.00 | 3.60 | < 3.00 |  |
